From patent US10785975B2, “Water and feed antimicrobial preservative” (priority 2009, dated 2020)
Like-named read-outs stand apart in the source and are kept apart here.

Assays:
[1] = test system: Salmonella typhimurium; assay: Example 2: effect of carbon chain length of individual organic acids on antimicrobial activity in water; format: cell-based; set-up: MIC at 4 HR / MIC at 24 FIR: unit not given here; conditions: for MIC at 4 HR / MIC at 24 FIR: Minimum Inhibitory Concentration of Organic Acids against Salmonella, by linear regression; for MIC at 24 FIR: 24 hours; for killing at 0.05 % / killing at 0.075 % / killing at 0.1 % / killing at […]: Salmonella enterica, TYPHIMURIUM
Procedure: 100 ul of a nutrient broth culture of Salmonella typhimurium was added to each dilution tube. After addition, tubes were vortexed and allowed to stand. At 4 and 24 hours after addition of the inoculum, 100 ul of the solution was plated on agar (triplicate plates). Plates were incubated at 37° C. for 24 hours prior to enumeration. The minimum effective dose of each acid was be determined by linear regression: […]

[2] = test system: Salmonella typhimurium; assay: Example 1: effect of pH buffering of acetic and propionic acid on antimicrobial activity in water; format: cell-based
Procedure: Propionic and acetic acids were buffered with ammonium hydroxide to pHs ranging from 1 to 7. Acid contents of the buffered solutions were determined by a weight to weight ratio calculation to obtain the same acid content in the test solutions. […] The pHs of the deionized water solutions were recorded and any problems with solubility noted.
100 ul of a nutrient broth culture of Salmonella typhimurium was added to each dilution tube. After addition, tubes were vortexed and allowed to stand. At 4 and 24 hours after addition of the inoculum, 100 ul of the solution was plated on Standard Plate agar (triplicate plates). Plates were incubated at 37° C. for 24 hours prior to enumeration. The minimum effective dose of each acid was determined by linear regression.

[3] = Product Conc. 0.025 (% acid solution in water), 4 hr
[4] = Product Conc. 0.025 (% acid solution in water), 24 hr
[5] = Product Conc. 0.05 (% acid solution in water), 4 hr
[6] = Product Conc. 0.05 (% acid solution in water), 24 hr
[7] = Product Conc. 0.075 (% acid solution in water), 4 hr
[8] = Product Conc. 0.075 (% acid solution in water), 24 hr
[9] = Product Conc. 0.1 (% acid solution in water), 4 hr
[10] = Product Conc. 0.1 (% acid solution in water), 24 hr
[11] = 4 h, read-out: Salmonella at time Interval 4 hr % reduction
[12] = 24 h, read-out: Salmonella at time Interval 24 hr % reduction
[13] = Product Conc. 0.025 (% acid solution in water), 4 hr, read-out: Salmonella at time Interval 4 hr % reduction
[14] = Product Conc. 0.025 (% acid solution in water), 24 hr, read-out: Salmonella at time Interval 24 hr % reduction
[15] = Product Conc. 0.05 (% acid solution in water), 4 hr, read-out: Salmonella at time Interval 4 hr % reduction
[16] = Product Conc. 0.05 (% acid solution in water), 24 hr, read-out: Salmonella at time Interval 24 hr % reduction
[17] = Product Conc. 0.075 (% acid solution in water), 4 hr, read-out: Salmonella at time Interval 4 hr % reduction
[18] = Product Conc. 0.075 (% acid solution in water), 24 hr, read-out: Salmonella at time Interval 24 hr % reduction
[19] = Product Conc. 0.1 (% acid solution in water), 4 hr, read-out: Salmonella at time Interval 4 hr % reduction
[20] = Product Conc. 0.1 (% acid solution in water), 24 hr, read-out: Salmonella at time Interval 24 hr % reduction

MIC at 4 HR ([1]; 4 hr)	MIC at 24 FIR [1]	SMILES	Salmonella at time Interval 4 hr cfu/g [1, 3] [cfu/g]	Salmonella at time Interval 24 hr cfu/g [1, 4] [cfu/g]	Salmonella at time Interval 4 hr cfu/g [1, 5] [cfu/g]	Salmonella at time Interval 24 hr cfu/g [1, 6] [cfu/g]	Salmonella at time Interval 4 hr cfu/g [1, 7] [cfu/g]	Salmonella at time Interval 24 hr cfu/g [1, 8] [cfu/g]	Salmonella at time Interval 4 hr cfu/g [1, 9] [cfu/g]	Salmonella at time Interval 24 hr cfu/g [1, 10] [cfu/g]	killing at […] [1, 13] [%]	killing at […] [1, 14] [%]	killing at 0.05 % [1, 15] [%]	killing at 0.05 % [1, 16] [%]	killing at 0.075 % [1, 17] [%]	killing at 0.075 % [1, 18] [%]	killing at 0.1 % [1, 19] [%]	killing at 0.1 % [1, 20] [%]	other results
0.109	0.090	CCCCCCCC(=O)O [Caprylic acid/KOH, Caprylic acid]	1567	1400	1333	797	1100	77	0	0	2	18	17	53	31	95	100	100	
0.075	0.063	CCCCCCC(=O)O [Oenanthic acid]	1103	10	0	0	0	0	0	0									Salmonella at time Interval 4 hr % reduction [1, 3]: 31%; Salmonella at time Interval 24 hr % reduction [1, 4]: 99%; Salmonella at time Interval 4 hr % reduction [1, 5]: 100%; Salmonella at time Interval 24 hr % reduction [1, 6]: 100%; Salmonella at time Interval 4 hr % reduction [1, 7]: 100%; Salmonella at time Interval 24 hr % reduction [1, 8]: 100%; Salmonella at time Interval 4 hr % reduction [1, 9]: 100%; Salmonella at time Interval 24 hr % reduction [1, 10]: 100%
0.072	<0.025	CCCCCCCCCCCC(=O)O [Lauric acid/KOH, Lauric acid]	670	20	0	0	0	0	0	0	58	99	100	100	100	100	100	100	
0.174	0.070	CCCCC(=O)O [Valeric acid]	1233	533	1267	73	990	37	657	17	23	69	21	96	38	98	59	99	
		CCCCCCCCC(=O)O [Pelargonic acid/KOH, Pelargonic acid]	7	0	0	0	0	0	0	0	100	100	100	100	100	100	100	100	
		CC(=O)O [Acetic pH 4, Acetic acid]																	MIC at 4 Hr ([2]; Minimum Inhibitory Concentrations, by linear regression over 0.025-0.1% acid solutions, 4 hr, pH 4): 0.207; MIC at 24 HR ([2]; Minimum Inhibitory Concentrations, by linear regression over 0.025-0.1% acid solutions, 24 hr, pH 4): 0.096; Salmonella at time Interval 4 hr % reduction [2, 3]: 29%; Salmonella at time Interval 4 hr cfu/g [2, 3]: 1067 cfu/g; Salmonella at time Interval 24 hr % reduction [2, 4]: 54%; Salmonella at time Interval 24 hr cfu/g [2, 4]: 543 cfu/g; Salmonella at time Interval 4 hr % reduction [2, 5]: 22%; Salmonella at time Interval 4 hr cfu/g [2, 5]: 1167 cfu/g; Salmonella at time Interval 24 hr % reduction [2, 6]: 66%; Salmonella at time Interval 24 hr cfu/g [2, 6]: 407 cfu/g; Salmonella at time Interval 4 hr % reduction [2, 7]: 27%; Salmonella at time Interval 4 hr cfu/g [2, 7]: 1097 cfu/g; Salmonella at time Interval 24 hr % reduction [2, 8]: 78%; Salmonella at time Interval 24 hr cfu/g [2, 8]: 263 cfu/g; Salmonella at time Interval 4 hr % reduction [2, 9]: 22%; Salmonella at time Interval 4 hr cfu/g [2, 9]: 1167 cfu/g; Salmonella at time Interval 24 hr % reduction [2, 10]: 84%; Salmonella at time Interval 24 hr cfu/g [2, 10]: 183 cfu/g

SMILES	MIC at 4 HR ([1]; 4 hr)	MIC at 24 FIR [1]	Salmonella at time Interval 4 hr cfu/g [1, 3] [cfu/g]	Salmonella at time Interval 24 hr cfu/g [1, 4] [cfu/g]	Salmonella at time Interval 4 hr cfu/g [1, 5] [cfu/g]	Salmonella at time Interval 24 hr cfu/g [1, 6] [cfu/g]	Salmonella at time Interval 4 hr cfu/g [1, 7] [cfu/g]	Salmonella at time Interval 24 hr cfu/g [1, 8] [cfu/g]	Salmonella at time Interval 4 hr cfu/g [1, 9] [cfu/g]	Salmonella at time Interval 24 hr cfu/g [1, 10] [cfu/g]	killing at […] [1, 13] [%]	killing at […] [1, 14] [%]	killing at 0.05 % [1, 15] [%]	killing at 0.05 % [1, 16] [%]	killing at 0.075 % [1, 17] [%]	killing at 0.075 % [1, 18] [%]	killing at 0.1 % [1, 19] [%]	killing at 0.1 % [1, 20] [%]	other results
CCCCCC(=O)O [Caproic acid]	0.103	0.063	1267	30	1433	7	523	0	27	0									killing at 0.05 % [1, 11]: 10%; killing at 0.075 % [1, 11]: 67%; killing at 0.1 % [1, 11]: 98%; killing at […] [1, 11]: 21%; killing at 0.05 % [1, 12]: 100%; killing at 0.075 % [1, 12]: 100%; killing at 0.1 % [1, 12]: 100%; killing at […] [1, 12]: 98%
